Where two headings read alike, the source gives them in different places.
Experiments:
HCT-8 = assay: Tumor cell proliferation (MTS), HCT-8; type: cell-based; conditions: Homo sapiens; HCT-8, 72 hours; read-out: Gl50 µM in HCT-8
Procedure: (§1) Tumor cells were trypsinized and plated into 96-well plates at 3,000 per well and incubated in complete medium with 10% FBS for 24 hours. Compounds to be tested and vehicle control were added, and the final concentration of compound is in the range of 100 nmol/L to 100 µmol/L. The compounds were incubated for 72 hours in complete medium. The MTS reagent (Promega) was added according to the instruction, incubated for 2 hours at 37°C in CO2 incubator. Then absorbance at 490nm is read using an ELISA plate reader.

Bel-7402 = assay: Tumor cell proliferation (MTS), Bel-7402; type: cell-based; conditions: Homo sapiens; Bel-7402, 72 hours; read-out: Gl50 µM in Bel-7402
Procedure: as §1

Class I HDAC = assay: HDAC subtype selectivity reporter gene assay (P21 reporter, HeLa cells); type: cell-based; conditions: Homo sapiens, read-out: Class I HDAC (P21 reporter assay) Fold Induction at 10µM
Procedure: Different HDAC subtypes can bind with different transcriptional factors and involve in expression regulation of various genes. Suitable regulation elements for transcriptional factors are selected to construct reporter genes, which can be used to evaluate the selective inhibition of inhibors on HDAC subtypes. Briefly, HeLa cells were seeded in 96-well plates the day before transfection to give a confluence of 50-80% when transfection. Cells were transfected with one of reporter gene plasmid containing a p21-promoter sequence or response element upstream of a luciferase gene construct using FuGene6 transfection reagent according to the manufacturer's instruction (Roche). For normalizing the transfection efficiency, a GFP expression plasmid was cotransfected. After 24 hours compounds or the vehicle control (DMSO) were added. 24 hours later the cells were harvested and lysed, and the amount of the luciferase was evaluated using luciferase assay kits (Promega) according to the manufacturer's instructions.

MCF-7 = assay: Tumor cell proliferation (MTS), MCF-7; type: cell-based; conditions: Homo sapiens, MCF7; MCF-7, 72 hours; read-out: Gl50 µM in MCF-7
Procedure: as §1

A549 = assay: Tumor cell proliferation (MTS), A549; type: cell-based; conditions: Homo sapiens; A549, 72 hours; read-out: Gl50 µM in A549
Procedure: as §1

A-498 = assay: Tumor cell proliferation (MTS), A-498; type: cell-based; conditions: Homo sapiens, A498; A-498, 72 hours; read-out: Gl50 µM in A-498
Procedure: as §1

HUVEC cells = assay: VEGF dependent cell proliferation (MTS); type: cell-based; conditions: Homo sapiens, VEGF 165 (50ng/ml), 72 hours, serum-free medium, read-out: Gl50 nM (VEGF ligand-dependent cell proliferation)
Procedure: HUVEC cells were plated into 96-well plates at 6,000 per well and after 24 hours incubated with serum-free medium for 2 hours. Compounds to be tested and VEGF 165 (50ng/ml) were added and incubated for 72 hours in serum-free medium. The effects on cell proliferation were determined by MTS method (Promega) according to the instruction. Incubation was performed for 2 hours at 37°C in CO2 incubator, and absorbance at 490nm was determined using an ELISA plate reader.

human PDGFRβ = target: T1, human PDGFRβ (Homo sapiens, UniProt P09619); assay: PDGF dependent cell proliferation (MTS); type: cell-based
T1 construct: expressed in transfected cells
T1 sequence (P09619 33-1106): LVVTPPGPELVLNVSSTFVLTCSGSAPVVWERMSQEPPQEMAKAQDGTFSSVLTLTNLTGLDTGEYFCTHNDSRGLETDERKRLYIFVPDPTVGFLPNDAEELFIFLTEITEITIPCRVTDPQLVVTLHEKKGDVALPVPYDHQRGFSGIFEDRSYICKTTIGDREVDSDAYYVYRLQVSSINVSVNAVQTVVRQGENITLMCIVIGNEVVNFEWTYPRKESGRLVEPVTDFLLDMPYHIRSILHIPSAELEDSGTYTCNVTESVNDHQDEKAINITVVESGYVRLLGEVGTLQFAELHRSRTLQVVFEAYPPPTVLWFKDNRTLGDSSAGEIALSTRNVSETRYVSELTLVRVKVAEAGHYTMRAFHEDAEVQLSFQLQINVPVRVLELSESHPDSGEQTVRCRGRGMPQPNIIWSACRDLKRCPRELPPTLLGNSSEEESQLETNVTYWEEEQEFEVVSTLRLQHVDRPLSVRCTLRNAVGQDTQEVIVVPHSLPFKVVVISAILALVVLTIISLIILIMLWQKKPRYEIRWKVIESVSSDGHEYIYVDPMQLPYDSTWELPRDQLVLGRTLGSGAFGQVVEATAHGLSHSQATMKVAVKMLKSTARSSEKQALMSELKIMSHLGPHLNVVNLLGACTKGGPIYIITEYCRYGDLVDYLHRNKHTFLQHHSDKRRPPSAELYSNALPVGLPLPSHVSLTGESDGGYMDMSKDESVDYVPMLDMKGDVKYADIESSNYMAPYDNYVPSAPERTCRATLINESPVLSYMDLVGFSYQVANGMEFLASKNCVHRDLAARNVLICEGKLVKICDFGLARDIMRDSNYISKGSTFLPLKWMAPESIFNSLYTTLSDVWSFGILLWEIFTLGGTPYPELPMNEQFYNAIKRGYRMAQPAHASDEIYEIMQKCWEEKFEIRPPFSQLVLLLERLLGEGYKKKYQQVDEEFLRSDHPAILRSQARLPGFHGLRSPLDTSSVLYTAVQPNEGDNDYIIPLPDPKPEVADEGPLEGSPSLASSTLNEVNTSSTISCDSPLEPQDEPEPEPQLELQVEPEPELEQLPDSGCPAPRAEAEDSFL
Procedure: NIH-3T3 mouse fibroblasts cell line engineered to stably express human PDGFRβ was constructed and used to evaluate PDGF dependent cell proliferation. PDGFRβ NIH-3T3 cells were plated into 96-well plates at 5,000 per well and incubated overnight with serum-free medium after 24 hours. Compounds to be tested and PDGF BB (50ng/ml) were added and incubated for 72 hours in serum-free medium. The effects on proliferation were determined by MTS method (Promega) according to the instruction. Incubation was performed for 2 hours at 37°C in CO2 incubator, and absorbance at 490nm was measured using an ELISA plate reader.

total HDAC enzyme = assay: In vitro total HDAC enzyme activity (HDAC Fluorimetric Assay/Drug Discovery Kit, HeLa cell nuclear extract); type: biochemical
Procedure: The in vitro total HDAC enzyme activity was determined by HDAC Fluorimetric Assay/Drug Discovery Kit (BIOMOL) according to manufacture's instruction. The principle of the experiment is as follows: under the action of histone deacetylase (in the experiment, HeLa cell nuclear extract, which was rich in a variety of subtypes of HDAC, was used), an acetyl group is removed from a special substrate Fluor de Lys, thus the free amino is exposed. Upon Developer is added, the substrate will produce fluorescence. For the fluorescence, excitation wavelength is 360nm, and emission wavelength is 460nm. More fully the substrate deacetylated, more higher the fluorescence induced. In the absence of inhibitors, the fluorescence value is taken as the control; when inhibitor is existed, fluorescence value induced will be reduced, while in the case no enzyme is existed (corresponding to the completely inhibition of enzyme activity) the fluorescence value is blank. Generally, after suppression the fluorescence values will be between the control and blank. When analysis is made, blank will be used as 0, and the control will be used as 1. Smaller value means higher inhibitory activity. 1. Add Assay buffer, diluted trichostatin A and test inhibitor to appropriate wells of the microtiter plate. Following table lists the amounts used for each regent of various assay types.
2. Add diluted HeLa nucleoprotein extract to all wells except those that are marked as "blank". 3. Allow diluted Fluor de Lys™ Substrate and the samples in the microtiter plate to equilibrate to 25°C. 4. Initiate HDAC reactions by adding diluted substrate (25 µl) to each well and mixing thoroughly. 5. Allow reactions to proceed for 30 minutes and then stop them by addition of Fluor de Lys™ Developer (50 µl). Incubate plate at room temperature (25°C) for 10-15 min. 6. Read fluorescence of samples on a microtiter-plate reading fluorimeter at a excitation wavelength of 369 nm and a emitted wavelength of 451 nm.

[1] = PDGFRβ NIH-3T3 cells, PDGF BB (50ng/ml), 72 hours, serum-free medium; read-out: Gl50 nM (PDGF ligand-dependent cell proliferation)

Row | SMILES | IC50 (HCT-8) [nM] | IC50 (Bel-7402) [nM] | fold induction at 10 µM (Class I HDAC; 10µM, HeLa cells, 24 hours) | IC50 (MCF-7) [nM] | IC50 (A549) [nM] | IC50 (A-498) [nM] | IC50 (HUVEC cells) [nM] | IC50 (human PDGFRβ; [1]) [nM] | % inhibition of total HDAC enzyme activity at 30µM (total HDAC enzyme) [%] | fold induction at 10 µM (Class I HDAC; HeLa, 24 h) | IC50 (human PDGFRβ; read-out: Gl50 nM (PDGF ligand-dependent cell proliferation); PDGFRβ NIH-3T3 cells, PDGF BB (50ng/ml), 72 hours, serum-free medium) [nM]
1 | Nc1cc(F)ccc1NC(=O)c1ccc(CNC(=O)/C=C/c2cccnc2)cc1 [CS055, Chidamide, reference compound] | 7710 | 18900 | 33 | 3860 | 11200 | 12100 |  |  |  |  | 
2 | COc1cc2ncnc(Oc3ccc4c(C(=O)Nc5ccccc5N)cccc4c3)c2cc1OC [Compound 16, N-(2-aminophenyl)-6-(6,7-dimethoxyquinazolin-4-yloxy)-1-naphthamide] | 12300 | 30000 | 1.3 | 30000 | 30000 | 30000 | 3 | 48 | 8.6 |  | 
3 | COc1cc2ncnc(Oc3ccc4c(C(=O)Nc5ccc(F)cc5N)cccc4c3)c2cc1OC [Compound 17, N-(2-amino-4-fluorophenyl)-6-(6,7-dimethoxyquinazolin-4-yloxy)-1-naphthamide] | 3000 | 30000 | 1.1 | 30000 | 30000 | 30000 | 3 | 40 | 22.5 |  | 
4 | COc1cc2ncnc(Oc3ccc4c(C(=O)Nc5ccc(C)cc5N)cccc4c3)c2cc1OC [Compound 18, N-(2-amino-4-methylphenyl)-6-(6,7-dimethoxyquinazolin-4-yloxy)-1-naphthamide] |  |  | 1.1 |  |  |  | 7 | 15 | 17.1 |  | 
5 | COc1ccc(NC(=O)c2cccc3cc(Oc4ncnc5cc(OC)c(OC)cc45)ccc23)c(N)c1 [Compound 19, N-(2-amino-4-methoxyphenyl)-6-(6,7-dimethoxyquinazolin-4-yloxy)-1-naphthamide] |  |  | 1.4 |  |  |  | 23 | 11 | 21.9 |  | 
6 | COc1cc2ncnc(Oc3ccc4c(C(=O)Nc5ccc(Cl)cc5N)cccc4c3)c2cc1OC [Compound 20, N-(2-amino-4-chlorophenyl)-6-(6,7-dimethoxyquinazolin-4-yloxy)-1-naphthamide] |  |  | 1.5 |  |  |  | 6 | 23 | 21.9 |  | 
7 | COc1cc2ncnc(Oc3ccc4c(C(=O)Nc5ccc(Br)cc5N)cccc4c3)c2cc1OC [Compound 21, N-(2-amino-4-bromophenyl)-6-(6,7-dimethoxyquinazolin-4-yloxy)-1-naphthamide] |  |  | 1.1 |  |  |  | 5 | 19 | 18.6 |  | 
8 | COc1cc2ncnc(Oc3ccc4c(C(=O)Nc5ccc(C(F)(F)F)cc5N)cccc4c3)c2cc1OC [Compound 22, N-(2-amino-4-trifluoromethylphenyl)-6-(6,7-dimethoxyquinazolin-4-yloxy)-1-naphthamide] |  |  | 1.1 |  |  |  | 3 | 372 | 17 |  | 
9 | COc1cc2ncnc(Oc3ccc4c(C(=O)NCc5ccc(C(=O)Nc6ccccc6N)cc5)cccc4c3)c2cc1OC [Compound 23, N-(4-((2-aminophenyl)carbamoyl)benzyl)-6-(6,7-dimethoxyquinazolin-4-yloxy)-1-naphthamide] | 5700 | 30000 | 11.3 | 4300 | 30000 | 14700 | 18 | 148 | 49.4 |  | 
10 | COc1cc2ncnc(Oc3ccc4c(C(=O)NCc5ccc(C(=O)Nc6ccccc6N)cn5)cccc4c3)c2cc1OC [Compound 25] | 4900 | 30000 |  | 6100 | 30000 | 14700 | 13 |  | 47.9 | 12.1 | 69
11 | Nc1ccccc1NC(=O)c1cccc2cc(Oc3ccnc4ccccc34)ccc12 [Compound 39, N-(2-aminophenyl)-6-(quinolin-4-yloxy)-1-naphthamide] |  |  | 1.2 |  |  |  | 107 | 32 | 15.9 |  | 
12 | Cc1cccc2c(Oc3ccc4c(C(=O)Nc5ccccc5N)cccc4c3)ccnc12 [Compound 40, N-(2-aminophenyl)-6-(8-methylquinolin-4-yloxy)-1-naphthamide] |  |  | 1.3 |  |  |  | 1000 |  | 22.2 |  | 
13 | Nc1ccccc1NC(=O)c1cccc2cc(Oc3ccnc4cc(Cl)ccc34)ccc12 [Compound 41, N-(2-aminophenyl)-6-(7-chloroquinolin-4-yloxy)-1-naphthamide] |  |  | 1.1 |  |  |  | 105 | 479 | 19.3 |  | 
14 | Nc1ccccc1NC(=O)c1cccc2cc(Oc3ccnc4c(C(F)(F)F)cccc34)ccc12 [Compound 42, N-(2-aminophenyl)-6-(8-trifluoromethylquinolin-4-yloxy)-1-naphthamide] |  |  | 1.3 |  |  |  | 1000 | 48 | 6.2 |  | 
15 | Nc1ccccc1NC(=O)c1ccc(CNC(=O)c2cccc3cc(Oc4ccnc5cc(Cl)ccc45)ccc23)cc1 [Compound 43, N-(4-((2-aminophenyl)carbamoyl)benzyl)-6-(7-chloroquinolin-4-yloxy)-1-naphthamide] |  |  | 6.1 |  |  |  | 288 |  | 38.7 |  | 
16 | Nc1ccccc1NC(=O)c1ccc(CNC(=O)c2cccc3cc(Oc4ccnc5c(C(F)(F)F)cccc45)ccc23)cc1 [Compound 44] |  |  | 3.2 |  |  |  | 1000 |  | 35.1 |  | 
